Columns and labels:
[1] = target: recombinant human VEGFR2 (Homo sapiens (Human), UniProt P35968); assay: Inhibition of VEGFR2 kinase activity (Z'-LYTE kit); type: biochemical; details: ATP 50 μM, 25° C. 2 hours
Procedure: The inhibition effect of VEGFR2 kinase activity in vitro was determined by the following method.
The inhibition effect of the compounds of the present invention on VEGFR2 kinase activity was determined by the following experimental method:
Z'-LYTEC® Kinase Assay Kit—Tyrosine 1 Peptide (PV3190, Invitrogen) was used to assay enzyme activity. 5 μl of recombinant human VEGFR2 enzyme (PV3660, Invitrogen) and VEGFR2 substrate polypeptide (in the reaction system, the final concentration of enzyme was 0.14 ng/μL, and the final concentration of substrate was 2 μM) formulated with reaction buffer (50 mM HEPES pH7.5, 10 mM MgCl2, 1 mM EGTA, 0.05% BRIJ-35), 2.5 μl of a 2-fold gradient dilution of the compounds dissolved in 5% DMSO, and 2.5 μL of ATP solution (the final concentration of ATP was 50 μM) were added successively to a 384-well plate (4513, Corning). After reaction at 25° C. for 2 hours, 5 μL of detection reagent was added to each well. After the plate was placed at 25° C. for 1 hour, the fluorescence signal values at emission wavelengths of 445 nm and 520 nm were measured with a NOVOstar (BMG) multi-function microplate reader. The IC50 values of the compounds for enzyme inhibition were calculated using Graphpad prism software based on each concentration of the compound and the corresponding signal value thereof.

[2] = target: p38α kinase (Homo sapiens (Human), UniProt Q16539); assay: Inhibition of p38α kinase activity (ADP-Glo kit); type: biochemical; details: ATP 50 μM, 27° C. 2.5 hours
Procedure: The inhibition of p38α kinase activity in vitro was determined by the following method.
The inhibition effect of the compounds of the present invention on p38α kinase activity was determined by the following experimental method:
p38α kinase assay kit (V9591, Promega) was used to assay enzyme activity. 2 μl of enzyme solution (the final concentration of enzyme in the reaction system was 0.5 ng/μL) formulated with reaction buffer (40 mM Tris pH 7.5, 20 mM MgCl2, 0.1 mg/ml BSA), 1 μl of a 3-fold gradient dilution of the compounds dissolved in 5% DMSO, and 2 μl of a mixed solution of ATP and p38 substrate peptide (the final concentration of ATP was 50 μM, and the final concentration of substrate was 0.2 μg/μL) were added successively to a 384-well plate (4514, Corning). After reaction at 27° C. for 2.5 hours, 5 μl of ADP-Glo solution in the kit was added to each well, then the plate was placed at 27° C. for 40 minutes. 10 μl of kinase assay reagent was then added to each well, then the plate was placed at 27° C. for 30 minutes. The chemiluminescence signal values were measured with a Victor 3 (PerkinElmer) multi-function microplate reader. The IC50 values of the compounds on enzyme inhibition were calculated using Graphpad prism software based on each concentration of the compound and the corresponding signal value thereof.

[3] = test system: Smad signaling pathway of TGFβRI; assay: Inhibition of Smad signaling pathway of TGFβRI (3TP-lux luciferase reporter in HepG2 cells); type: cell-based; details: HepG2, 3TP-lux plasmid, 18 hours; for IC50: Homo sapiens
Procedure: The inhibition effect of the compounds of the present invention on Smad signaling pathway of TGFβRI was determined by the following in vitro test.
The inhibition effect of the compounds of the present invention on Smad signaling pathway of TGFβRI was determined by the following experimental method:
On a 96-well plate, 100 μL of HepG2 cell (TCHu 72, Cell Bank of Typical Culture Collection Committee of Chinese Academy of Sciences) was seeded on an EMEM medium containing 10% FBS (42360-099, Gibco) in each well. The seeding density is 2.5×10^4 cells/well. The cells were incubated overnight at 37° C., in 5% CO2. Each well was replaced with fresh EMEM medium containing 10% FBS. 0.1 μg of 3TP-lux plasmid (11767, Biovector Science Lab, Inc.) was transfected in each well. The cells were further incubated for 24 hours at 37° C., in 5% CO2. Each well was replaced with 90 μL of EMEM medium containing 0.5% FBS, then the cells were starved for 6 hours. The compounds were formulated as a 20 mM stock solution, which was diluted in gradient to a 400× concentration with 100% DMSO, and further 40-fold diluted with EMEM containing 0.5% FBS. The cell culture plate was taken out, then 10 μl of diluted compound or control (0.25% DMSO) was added to each well respectively. The plate was shaken gently, then incubated for 18 hours in an incubator at 37° C., in 5% CO2. Finally, 100 μl of detection reagent ONE-Glo™ Luciferase Assay (E6110, Promega) was added to each well, and the plate was placed in dark at room temperature for 10 minutes. The chemiluminescence signal values were measured with a Victor 3.0 (PerkinElmer). The IC50 values of the compounds were calculated using Graphpad Prism software based on each concentration of the compound and the corresponding signal value thereof.

[4] = Pharmacokinetics assay in rats after intragastrical administration; type: in vivo; details: both sexes, Sprague-Dawley, rat, plasma, po, SD rats; for Vd/F / AUC / CL/F / half-life / MRT: 2.0 mg/kg; for Vd/F: read-out: Apparent distribution volume Vz/F; for AUC: read-out: Area under curve AUC; for CL/F: read-out: Clearance CLz/F; for half-life: read-out: Half-life T1/2 (converted); for MRT: read-out: Residence time MRT
Procedure: Rats were used as test animals. The drug concentration in plasma at different time points was determined by LC/MS/MS method after intragastrical administration of the compounds of Examples 1 and 2 to rats. The pharmacokinetic behavior of the compounds of the present invention was studied and evaluated in rats.
Eight healthy adult Sprague-Dawley (SD) rats (half male and half female) were purchased from SINO-BRITISH SIPPR/BK LAB. ANIMAL LTD., CO, with Certificate No.: SCXK (Shanghai) 2008-0016, and equally divided into 2 groups (4 rats per group).
A certain amount of the test drug was weighed, and added with 5% by volume of DMSO, 5% by volume of Tween 80, and 90% by volume of physiological saline to prepare a 0.2 mg/mL colorless, clear and transparent solution.
After an overnight fast, SD rats were administered intragastrically the test drugs at an administration dosage of 2.0 mg/kg and an administration volume of 10.0 mL/kg.
The rats were intragastrically administered the compounds of Examples 1 and 2. 0.2 mL of blood was taken from the orbital sinus before administration and at 0.5, 1.0, 2.0, 4.0, 6.0, 8.0, 11.0 and 24.0 hours after administration. The samples were stored in heparinized tubes, and centrifuged for 10 minutes at 4° C. at 3,500 rpm to separate the blood plasma. The plasma samples were stored at −20° C. The rats were fed 2 hours after administration.
The content of the test compounds in the plasma of rats after intragastrical administration of the test drugs at different concentrations was determined: 25 μL of rat plasma at each time after administration was taken, added with 30 μL (100 ng/mL) of the internal standard solution of camptothecin and 225 μL of acetonitrile, vortex-mixed for 5 minutes, and centrifuged for 10 minutes (3600 rpm). 5.0 μL of the supernatant was taken from the plasma samples for LC/MS/MS analysis.

Sequence of recombinant human VEGFR2 (P35968 20-1356): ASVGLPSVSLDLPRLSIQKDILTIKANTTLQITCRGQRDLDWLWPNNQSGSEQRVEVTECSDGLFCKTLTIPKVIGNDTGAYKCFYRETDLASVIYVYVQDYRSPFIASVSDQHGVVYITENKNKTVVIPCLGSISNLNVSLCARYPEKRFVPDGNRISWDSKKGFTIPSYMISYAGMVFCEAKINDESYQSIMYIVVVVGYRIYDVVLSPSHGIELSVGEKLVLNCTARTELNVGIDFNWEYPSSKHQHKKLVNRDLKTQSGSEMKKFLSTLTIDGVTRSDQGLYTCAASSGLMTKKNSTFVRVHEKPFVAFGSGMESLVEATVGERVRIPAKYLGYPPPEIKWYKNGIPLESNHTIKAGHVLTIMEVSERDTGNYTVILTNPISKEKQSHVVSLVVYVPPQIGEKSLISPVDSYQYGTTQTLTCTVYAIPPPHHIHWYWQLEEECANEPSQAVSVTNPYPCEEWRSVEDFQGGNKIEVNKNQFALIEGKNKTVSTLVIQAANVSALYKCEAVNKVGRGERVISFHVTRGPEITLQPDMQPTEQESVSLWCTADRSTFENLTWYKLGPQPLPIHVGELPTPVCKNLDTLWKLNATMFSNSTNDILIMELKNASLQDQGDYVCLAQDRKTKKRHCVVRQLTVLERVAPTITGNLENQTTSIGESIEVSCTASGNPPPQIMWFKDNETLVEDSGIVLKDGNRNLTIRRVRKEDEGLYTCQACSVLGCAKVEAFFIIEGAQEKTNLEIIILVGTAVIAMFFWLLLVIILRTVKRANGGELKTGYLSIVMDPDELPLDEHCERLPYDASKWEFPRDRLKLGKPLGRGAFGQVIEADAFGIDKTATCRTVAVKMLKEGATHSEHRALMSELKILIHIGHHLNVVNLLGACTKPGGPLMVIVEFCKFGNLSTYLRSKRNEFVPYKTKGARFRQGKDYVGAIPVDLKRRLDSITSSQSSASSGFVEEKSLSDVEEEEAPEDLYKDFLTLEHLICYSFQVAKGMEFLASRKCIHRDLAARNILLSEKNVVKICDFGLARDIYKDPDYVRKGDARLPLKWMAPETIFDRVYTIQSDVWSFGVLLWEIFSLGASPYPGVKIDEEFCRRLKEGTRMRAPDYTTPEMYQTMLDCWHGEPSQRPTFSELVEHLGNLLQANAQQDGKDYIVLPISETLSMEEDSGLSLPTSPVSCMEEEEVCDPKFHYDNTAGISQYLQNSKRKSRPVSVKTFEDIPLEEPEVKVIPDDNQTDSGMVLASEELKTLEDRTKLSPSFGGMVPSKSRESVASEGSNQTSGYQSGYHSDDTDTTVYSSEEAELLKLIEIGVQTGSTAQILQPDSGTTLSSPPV
Sequence of p38α kinase (Q16539 whole entry): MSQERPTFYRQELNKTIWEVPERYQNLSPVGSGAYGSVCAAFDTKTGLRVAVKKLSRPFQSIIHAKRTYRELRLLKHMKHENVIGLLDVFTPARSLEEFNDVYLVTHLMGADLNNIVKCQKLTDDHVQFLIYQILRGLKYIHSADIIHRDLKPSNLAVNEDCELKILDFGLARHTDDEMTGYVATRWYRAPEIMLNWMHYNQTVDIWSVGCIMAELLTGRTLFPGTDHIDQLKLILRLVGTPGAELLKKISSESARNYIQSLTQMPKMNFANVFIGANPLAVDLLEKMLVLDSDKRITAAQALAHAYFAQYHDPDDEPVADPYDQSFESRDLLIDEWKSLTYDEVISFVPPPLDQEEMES

With `Cc1cccc(-c2nn(C3CCC3)cc2-c2ccnc(-c3ccc(S(C)(=O)=O)cc3)c2)n1` [Example 1, 4-(1-Cyclobutyl-3-(6-methylpyridin-2-yl)-1H-pyrazol-4-yl)-2-(4-(methylsulfonyl)phenyl)pyridine] the IC50 [1] was 2500 nM, the IC50 [2] was 2200 nM and the “Maximum inhibition rate (%)” value [3] was 101%. It also gave an IC50 [3] of 77 nM, a Cmax ([4]; 2 mg/kg, heading: Plasma concentration Cmax) of 1830 ± 941 ng/mL and a Vd/F [4] of 1.2 ± 0.437 L/kg. It also gave an AUC [4] of 3270 ± 1470 ng·h/mL, a CL/F [4] of 11.9 ± 5.2 mL/min/kg and a half-life [4] of 1.23 ± 0.33 h. It also gave an MRT [4] of 1.72 ± 0.21 h.

With `Cc1cccc(-c2nn(C3CC3)cc2-c2ccnc(-c3ccc(S(C)(=O)=O)cc3)c2)n1` [Example 2, 4-(1-Cyclopropyl-3-(6-methylpyridin-2-yl)-1H-pyrazol-4-yl)-2-(4-(methylsulfonyl)phenyl)pyridine] the IC50 [1] was 4200 nM, the IC50 [2] was 1000 nM and the “Maximum inhibition rate (%)” value [3] was 100%. It also gave an IC50 [3] of 174 nM, a Vd/F [4] of 0.872 ± 0.536 L/kg and an AUC [4] of 8060 ± 5290 ng·h/mL. It also gave a CL/F [4] of 5.33 ± 2.65 mL/min/kg, a half-life [4] of 1.99 ± 0.95 h and an MRT [4] of 3.06 ± 0.87 h.

Reference: patent publication US10899741B2, “3,4-bipyridyl pyrazole derivative, and preparation method therefor and medical application thereof” (Jiangsu Hengrui Medicine Co., Ltd., priority 2016, dated 2021)
